Test system: mealworms
Assay: Pest mortality test, mealworms on sprayed spinach leaves
Assay type: in vivo, mealworms (larval form of the mealworm beetles)
Settings: 100 ppm DEL, in 2 hours, FIG. 3C
Procedure: Deltamethrin and permethrin/CNC nano-dispersions with agrochemical and CNC mass ratio of 1:100 were prepared according to the said process in example 5, and they are designated as CNC-DEL and CNC-PER, respectively. The resulting nano-dispersions were diluted to 0.1 wt %, 0.5 wt %, 1.0 wt % and 1.5 wt %, where the corresponding active ingredient concentration was around 10 ppm, 50 ppm, 100 ppm and 150 ppm. To perform the pest control test, fresh spinach leaves were spread on a petri dish (10 cm diameter), then 2 mL of the dispersion was sprayed on top (1 mL) and bottom (1 mL) of the leave surface, and 20 active worms were placed on top of the leaves. The survival rate of the works was recorded at set time intervals. In comparison, the pest control efficiency of 1 wt % CNC (0 ppm DEL) and DEL control (100 ppm DEL) were also investigated and compared with 1.0 wt % CNC-DEL (100 ppm DEL). In addition, the pest control efficiency of CNC-PER was compared with the commercial EC pesticide ORTHO® HOME DEFENSE® MAX™ under the same PER dosage.
Both permethrin and deltamethrin are wide spectrum pesticides that belong to synthetic pyrethroids pesticides. Their mode of action is mainly based on contact and stomach toxicity. The pest control efficiency of CNC-DEL and CNC-PER nano-dispersions were evaluated with two model worms, mealworms and waxworms. […]

Work on `CC1(C)[C@H](C(=O)O[C@H](C#N)c2cccc(Oc3ccccc3)c2)[C@@H]1C=C(Br)Br` [DEL control, Deltamethrin] yielded a mortality at 100 ppm of 30%.

From US20240224991A9, “NANO-DISPERSION COMPRISING CELLULOSE NANOCRYSTAL AS PESTICIDE/FUNGICIDE CARRIERS FOR AGRICULTURE AND AQUACULTURE” (priority 2022, published 2024)
